The text below walks through data of patent publication US11376271B1, “Methods of ameliorating the effects of alcoholic liver damage” (FULGENT LIFE INC., priority 2021, dated 2022).

SMILES strings stand for the structures.

Assay [1] has as its system AML12 cells. Put plainly: Rescue from hydrogen peroxide (HP) genotoxicity: cell survival and NAD+ level. The format is cell-based. The following applies: 500 μM HP + 250 μM compound, 3 h, AML12 cells. The method, then: Because the increasing extent of NAD+ concentration is of interest, whether NADH can improve the cell survival rate under the stressful conditions of depletion of NAD+ was also assessed. To that end, as genotoxicity can lead to DNA damage, activate poly(ADP-ribose) polymerases and induce NAD+ depletion, genotoxicity was tested. Strong genotoxicity will lead to severe consumption of NAD+ by cells, resulting in cell death. To test genotoxicity, AML12 cells were treated with 500 μM hydrogen peroxide (HP) for 3 hours in the presence or absence of 1 mM NADH, and then the cells were counted and NAD+ was detected in the samples co-treated with NADH (1 mM) or its vehicle. FIG. 4A is a graph comparing the cell survival rate of the HP treated cells, NADH treated cells, and the HP+NADH treated cells relative to a control. And FIG. 4B is a graph comparing the NAD+ level of the HP treated cells, NADH treated cells, and the HP+NADH treated cells relative to a control. The cell survival rates and cellular NAD+ levels in FIGS. 4A-B are expressed as mean±SD.
The effects of NADH and NMN at a lower concentration (250 μM) on AML12 cells was also tested in a separate assay. Specifically, AML12 cells were treated with 500 μM HP in the presence or absence of 250 μm NADH or NMN for 3 h. FIG. 4C is a graph comparing the cell survival rate of the HP treated cells, HP+NADH treated cells, and the HP+NMN treated cells relative to a control. And FIG. 4D is a graph comparing the NAD+ level of the HP treated cells, HP+NADH treated cells, and the HP+NMN treated cells relative to a control. The cell survival rate and cellular NAD+ levels in FIGS. 4C-D are expressed as mean±SD.

Assay [2] deals with male C57BL/6J mice. Nature of the assay: Tissue NAD+ content after intraperitoneal injection. To be noted: 250 mg/kg intraperitoneal, 4 hours. The format is in vivo. The protocol: In the below in vivo assays, C57BL/6J male mice (The Jackson Laboratory) (40 days of age) were used. They were kept under standard laboratory conditions with a temperature of 22±1° C., dark/light cycles of 12/12 h, and relative humidity of 55±5%. All animals had free access to food and water, except for indicated fasting periods (and where not indicated for fasting periods of 2 hours before administration).
[…] Specifically, ten 8-week-old male C57BL/6J mice (The Jackson Laboratory) were kept in polycarbonate cages under a 12-h light/dark cycle with free access to food and water. […] Four hours later, the blood samples were collected by cardiac puncture and the mice were executed. Liver, brain, muscle, and adipose tissues were collected, instantly frozen in liquid nitrogen, and then stored at −80° C. until performance of the NAD+ analyses. […] Four hours later, the mice were killed and tissue samples were collected. All animal studies were performed according to the Guidelines for the Care and Use of Experimental Animals. For this NAD+ assay, about 100 mg of frozen tissue was crushed in liquid nitrogen and ultrasonically homogenized in 7% perchloric acid, and then the solution was neutralized and subjected to the NAD+ determination described here.
Data are indicated as mean±SD.

The test system of assay [3] is AML12 cells. Put plainly: NAD+/NADH ratio in AML12 cells. The following applies: 1 mM, 6 h, vs control.

With `NC(=O)c1ccc[n+]([C@@H]2O[C@H](COP(=O)([O-])O)[C@@H](O)[C@H]2O)c1` [NMN, nicotinamide mononucleotide, reference compound], in assay [1], the “effect on NAD+ levels under HP” value is on record as “much worse than that of NADH” and the “effect on cell survival under HP” value was “much worse than that of NADH”. Besides, the “increase of the concentration of NAD+ in the liver” value in assay [2] was found to be 170%. Further, the “NAD+/NADH ratio” value in assay [3] is on record as “significantly increase”.
